# Assay results as given in the Kinase Knowledgebase extract (Sharma et al. 2016).
# Molecular target: MAPK14 (human) (UniProt Q16539)
# Assay: Inhibition of MAPK14 Kinase Activity
# Chain of MAPK14 (human) (Q16539 whole entry, looked up): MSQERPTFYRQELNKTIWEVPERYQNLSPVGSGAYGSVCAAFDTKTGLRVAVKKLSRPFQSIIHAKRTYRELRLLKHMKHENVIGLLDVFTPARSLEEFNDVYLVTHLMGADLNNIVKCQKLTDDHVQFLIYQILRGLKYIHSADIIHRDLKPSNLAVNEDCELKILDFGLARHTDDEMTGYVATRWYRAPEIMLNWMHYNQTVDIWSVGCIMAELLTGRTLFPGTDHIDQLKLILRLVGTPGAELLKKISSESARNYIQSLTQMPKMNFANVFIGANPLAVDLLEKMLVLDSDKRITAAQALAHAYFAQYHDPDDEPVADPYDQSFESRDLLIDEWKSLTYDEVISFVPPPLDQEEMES
row,SMILES,IC50
1,CC(C)Cn1ncc2cc(C(O)c3ccc(Cl)cc3Cl)ccc21 (stereo not drawn),< 0.5 µM
2,CC(C)Cn1ncc2cc(C(=O)c3ccc(F)cc3)ccc21,< 0.5 µM
3,COC(=O)C(CCN)NC(=O)c1cc2c(cnn2CC(F)(F)F)cc1Oc1ccc(F)cc1 (stereo not drawn),< 0.5 µM
4,CON=C(c1ccc2c(cnn2S(C)(=O)=O)c1)c1ccc(F)cc1F,< 0.5 µM
5,CC(C)Cn1ncc2cc(C(O)c3ccc(F)cc3)ccc21 (stereo not drawn),< 0.5 µM
6,ON=C(c1ccc2c(cnn2CC(F)(F)F)c1)c1ccc(F)cc1F,< 0.5 µM
7,C=CCn1ncc2cc(C(=O)c3ccc(F)cc3F)ccc21,< 0.5 µM
8,CC(C)Cn1ncc2cc(Oc3ccc(F)cc3)c(C(=O)NCCN(C)C)cc21,< 0.5 µM
9,O=C(c1ccc2c(cnn2CC(F)(F)F)c1)c1ccc(F)cc1F,< 0.5 µM
10,CC(C)Cn1ncc2cc(C(=O)c3ccc(Cl)cc3Cl)ccc21,< 0.5 µM
11,CN(C)CCNC(=O)c1cc2c(cnn2CC(F)(F)F)cc1Oc1ccc(F)cc1,< 0.5 µM
12,CS(=O)(=O)n1ncc2cc(C(=NO)c3ccc(F)cc3F)ccc21,< 0.5 µM
13,Cc1ccccc1C(O)c1ccc2c(cnn2CC(C)C)c1 (stereo not drawn),< 0.5 µM
14,Cc1ccccc1C(=O)c1ccc2c(cnn2CC(C)C)c1,< 0.5 µM
15,Cc1ccccc1Nc1ccc2c(cnn2CC(C)C)c1,< 0.5 µM
16,CC(C)Cn1ncc2cc(C(O)c3ccc(F)cc3Cl)ccc21 (stereo not drawn),< 0.5 µM
17,CC(C)Cn1ncc2cc(C(O)c3ccc(Cl)cc3F)ccc21 (stereo not drawn),< 0.5 µM
18,CC(C)Cn1ncc2cc(Oc3ccc(F)cc3)c(C(N)=O)cc21,< 0.5 µM
19,CC(C)Cn1ncc2cc(C(=NO)c3ccc(F)cc3)ccc21,< 0.5 µM
20,CC(C)Cn1ncc2cc(Nc3ccc(F)cc3)ccc21,< 0.5 µM
21,COC(=O)C(CCN)NC(=O)c1cc2c(cnn2CC(C)C)cc1Oc1ccc(F)cc1 (stereo not drawn),< 0.5 µM

# More lines, now with the values ahead:
row,IC50,SMILES
1,< 0.5 µM,CC(C)Cn1ncc2cc(Nc3ccc(F)cc3F)ccc21
2,< 0.5 µM,CC(C)Cn1ncc2cc(C(O)c3ccc(F)cc3F)ccc21 (stereo not drawn)
3,< 0.5 µM,CC(C)Cn1ncc2cc(C(=O)c3ccc(F)cc3F)ccc21
4,< 0.5 µM,CON=C(c1ccc(F)cc1)c1ccc2c(cnn2CC(C)C)c1
5,< 0.5 µM,CC(C)Cn1ncc2cc(C(=O)c3ccc(Cl)cc3F)ccc21
6,< 0.5 µM,CCON=C(c1ccc2c(cnn2CC(C)C)c1)c1ccc(F)cc1F
7,< 0.5 µM,CC(C)Cn1ncc2cc(C(=O)c3ccc(F)cc3Cl)ccc21
8,< 0.5 µM,CON=C(c1ccc2c(cnn2CC(F)(F)F)c1)c1ccc(F)cc1F
9,< 0.5 µM,CCON=C(c1ccc(F)cc1)c1ccc2c(cnn2CC(C)C)c1
10,< 0.5 µM,C=CCn1ncc2cc(C(=NO)c3ccc(F)cc3F)ccc21
11,< 0.5 µM,CC(C)Cn1ncc2cc(C(=NO)c3ccc(F)cc3F)ccc21
12,< 0.5 µM,CC(C)Cn1ncc2cc(C(=NOCc3ccccc3)c3ccc(F)cc3F)ccc21
